Measured values as given in the supplement of paper PMC11208160.

Assay: recombinant UMI read abundance after kanamycin selection (control-corrected) (log10(CPM+1)); higher = more efficient recombination; extreme values may be limits of the assay; sequences stand for … in AGTGCAGAGAAAATCGGCCAGTTTTCTCTGCCTGCAGTCCGCATGCCGTGGGACCCCTTGGGTTCTAACCTGTTGCCTAGATTTATGCAGCGGACTGCCTTTCTCCCAAAGTGATAAACCGG…AGGTTGGTTTCACT; site = the 11-nt donor
Procedure, shortened: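 Each donor and donor-binding-loop pair was tracked by a 12-nt UMI on a plasmid carrying a promoterless kanamycin gene. With a second plasmid supplying a fixed target and T7-inducible IS621 bridge recombinase, the pool was plated in Escherichia coli on IPTG (0.07 mM) plus kanamycin or unselected. Sequencing of recombinant UMIs across the donor–target junction gave counts expressed as log10(CPM+1) after replicate averaging and control-derived scaling.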

Row | Sequence | recombinant UMI read abundance (log10)
1 | ATGGAGACATGGACCGGTTTTCCCGGTAATCCGTATTTGGT (site ATAGAGACTAC) | 1.66
2 | ATGGAGACATGGACCGGTTTTCCCGGTAATCCGTATTTGGT (site ATCGAGACTAC) | 0.157
3 | ATGGAGACATGGACCGGTTTTCCCGGTAATCCGTATTTGGT (site ATGGAGACTAC) | 1.83
4 | ATGGAGACATGGACCGGTTTTCCCGGTAATCCGTATTTGGT (site ATTGAGACTAC) | 0.681
5 | ATGGAGTCATGGACCGGTTTTCCCGGTAATCCGTATTTGGA (site ATGGAGTCTTC) | 2.86
6 | ATGGGAGCATGGACCGGTTTTCCCGGTAATCCGTATTTGCT (site ATGGGAGCTAG) | 2.19
7 | ATGGGCTCATGGACCGGTTTTCCCGGTAATCCGTATTTGTC (site ATGGGCTCTGA) | 2.97
8 | ATGGGGTCATGGACCGGTTTTCCCGGTAATCCGTATTTGAC (site ATGGGGTCTGT) | 3.47
9 | ATGGTTCCATGGACCGGTTTTCCCGGTAATCCGTATTTGTC (site ATGGTTCCTGA) | 1.67
10 | ATGTACACATGGACCGGTTTTCCCGGTAATCCGTATTTGAA (site ATGTACACTTT) | 1.82
11 | ATGTAGACATGGACCGGTTTTCCCGGTAATCCGTATTTGGC (site ATGTAGACTGC) | 2.91
12 | ATGTAGACATGGACCGGTTTTCCCGGTAATCCGTATTTGGC (site ATGTAGCCTGC) | 0
13 | ATGTAGACATGGACCGGTTTTCCCGGTAATCCGTATTTGGC (site ATGTAGGCTGC) | 2.14
14 | ATGTAGACATGGACCGGTTTTCCCGGTAATCCGTATTTGGC (site ATGTAGTCTGC) | 1.67
15 | ATGTAGCCATGGACCGGTTTTCCCGGTAATCCGTATTTGTT (site ATGTAGCCTAA) | 0.171
16 | ATGTAGGCATGGACCGGTTTTCCCGGTAATCCGTATTTGAC (site ATGTAGGCTGA) | 2.33
17 | ATGTAGGCATGGACCGGTTTTCCCGGTAATCCGTATTTGAC (site ATGTAGGCTGC) | 1.87
18 | ATGTAGGCATGGACCGGTTTTCCCGGTAATCCGTATTTGAC (site ATGTAGGCTGG) | 1.57
19 | ATGTAGGCATGGACCGGTTTTCCCGGTAATCCGTATTTGAC (site ATGTAGGCTGT) | 3.04
20 | ATGTAGTCATGGACCGGTTTTCCCGGTAATCCGTATTTGGC (site ATGTAGACTGC) | 1.85
21 | ATGTAGTCATGGACCGGTTTTCCCGGTAATCCGTATTTGGC (site ATGTAGCCTGC) | 0
22 | ATGTAGTCATGGACCGGTTTTCCCGGTAATCCGTATTTGGC (site ATGTAGGCTGC) | 0
23 | ATGTAGTCATGGACCGGTTTTCCCGGTAATCCGTATTTGGC (site ATGTAGTCTGC) | 3.26

Row | Sequence | recombinant UMI read abundance (log10)
24 | ATGTATGCATGGACCGGTTTTCCCGGTAATCCGTATTTGGC (site ATGTAAGCTGC) | 1.52
25 | ATGTATGCATGGACCGGTTTTCCCGGTAATCCGTATTTGGC (site ATGTACGCTGC) | 1.51
26 | ATGTATGCATGGACCGGTTTTCCCGGTAATCCGTATTTGGC (site ATGTAGGCTGC) | 0.86
27 | ATGTATGCATGGACCGGTTTTCCCGGTAATCCGTATTTGGC (site ATGTATGCTGC) | 3.22
28 | ATGTCCTCATGGACCGGTTTTCCCGGTAATCCGTATTTGTA (site ATGTCCTCTTA) | 2.5
29 | ATGTCGTCATGGACCGGTTTTCCCGGTAATCCGTATTTGTA (site ATGTCGTCTTA) | 1.95
30 | ATGTGCCCATGGACCGGTTTTCCCGGTAATCCGTATTTGCG (site ATGTGCCCTCG) | 0
31 | ATGTTCCCATGGACCGGTTTTCCCGGTAATCCGTATTTGTG (site AAGTTCCCTCA) | 0.0217
32 | ATGTTCCCATGGACCGGTTTTCCCGGTAATCCGTATTTGTG (site ACGTTCCCTCA) | 0.0446
33 | ATGTTCCCATGGACCGGTTTTCCCGGTAATCCGTATTTGTG (site AGGTTCCCTCA) | 0.0415
34 | ATGTTCCCATGGACCGGTTTTCCCGGTAATCCGTATTTGTG (site ATGTTCCCTCA) | 0.419
35 | ATGTTCGCATGGACCGGTTTTCCCGGTAATCCGTATTTGTA (site ATGTTCGCTTA) | 2.46
36 | ATGTTTGCATGGACCGGTTTTCCCGGTAATCCGTATTTGAT (site ATGTTTGCTAT) | 2.16
37 | ATTAAACCATGGACCGGTTTTCCCGGTAATCCGTATTTGCC (site ATTAAACCTGG) | 0
38 | ATTAAAGCATGGACCGGTTTTCCCGGTAATCCGTATTTGTA (site ATTAAAGCTTA) | 2.6
39 | ATTAAGACATGGACCGGTTTTCCCGGTAATCCGTATTTGGT (site ATTAAGACTAC) | 1.07
40 | ATTAAGACATGGACCGGTTTTCCCGGTAATCCGTATTTGGT (site ATTCAGACTAC) | 0.417
41 | ATTAAGACATGGACCGGTTTTCCCGGTAATCCGTATTTGGT (site ATTGAGACTAC) | 0.577
42 | ATTAAGACATGGACCGGTTTTCCCGGTAATCCGTATTTGGT (site ATTTAGACTAC) | 0.285
43 | ATTAGGCCATGGACCGGTTTTCCCGGTAATCCGTATTTGTG (site ATTAGGCCTCA) | 0.00967
44 | ATTCAAGCATGGACCGGTTTTCCCGGTAATCCGTATTTGAG (site ATACAAGCTCT) | 1.07
45 | ATTCAAGCATGGACCGGTTTTCCCGGTAATCCGTATTTGAG (site ATCCAAGCTCT) | 0.605
46 | ATTCAAGCATGGACCGGTTTTCCCGGTAATCCGTATTTGAG (site ATGCAAGCTCT) | 0.501

Row | Sequence | recombinant UMI read abundance (log10)
47 | ATTCAAGCATGGACCGGTTTTCCCGGTAATCCGTATTTGAG (site ATTCAAGCTCT) | 1.16
48 | ATTCAGACATGGACCGGTTTTCCCGGTAATCCGTATTTGGT (site ATTAAGACTAC) | 0.402
49 | ATTCAGACATGGACCGGTTTTCCCGGTAATCCGTATTTGGT (site ATTCAGACTAC) | 0.566
50 | ATTCAGACATGGACCGGTTTTCCCGGTAATCCGTATTTGGT (site ATTGAGACTAC) | 0.305
51 | ATTCAGACATGGACCGGTTTTCCCGGTAATCCGTATTTGGT (site ATTTAGACTAC) | 0.0116
52 | ATTCATACATGGACCGGTTTTCCCGGTAATCCGTATTTGTT (site ATTCATACTAA) | 0.291
53 | ATTGAGACATGGACCGGTTTTCCCGGTAATCCGTATTTGGG (site ATTGAGACTAC) | 0.0103
54 | ATTGAGACATGGACCGGTTTTCCCGGTAATCCGTATTTGGG (site ATTGAGACTCC) | 0.0142
55 | ATTGAGACATGGACCGGTTTTCCCGGTAATCCGTATTTGGG (site ATTGAGACTGC) | 0
56 | ATTGAGACATGGACCGGTTTTCCCGGTAATCCGTATTTGGG (site ATTGAGACTTC) | 0.0235
57 | ATTGAGTCATGGACCGGTTTTCCCGGTAATCCGTATTTGGT (site ATTGAGACTAC) | 0.0845
58 | ATTGAGTCATGGACCGGTTTTCCCGGTAATCCGTATTTGGT (site ATTGAGCCTAC) | 0.00525
59 | ATTGAGTCATGGACCGGTTTTCCCGGTAATCCGTATTTGGT (site ATTGAGGCTAC) | 0
60 | ATTGAGTCATGGACCGGTTTTCCCGGTAATCCGTATTTGGT (site ATTGAGTCTAC) | 2.29
61 | ATTGTAACATGGACCGGTTTTCCCGGTAATCCGTATTTGCT (site AATGTAACTAG) | 1.49
62 | ATTGTAACATGGACCGGTTTTCCCGGTAATCCGTATTTGCT (site ACTGTAACTAG) | 1.9
63 | ATTGTAACATGGACCGGTTTTCCCGGTAATCCGTATTTGCT (site AGTGTAACTAG) | 1.5
64 | ATTGTAACATGGACCGGTTTTCCCGGTAATCCGTATTTGCT (site ATTGTAACTAG) | 2.15
65 | ATTGTTGCATGGACCGGTTTTCCCGGTAATCCGTATTTGAC (site ATTGTTGCTGT) | 2.18
66 | ATTGTTGCATGGACCGGTTTTCCCGGTAATCCGTATTTGCT (site ATTGTTGCTAG) | 2.37
67 | ATTTAGACATGGACCGGTTTTCCCGGTAATCCGTATTTGCG (site ATTTAGACTCG) | 1.16
68 | ATTTAGTCATGGACCGGTTTTCCCGGTAATCCGTATTTGTT (site CACATCCCTTC) | 0.0539
